pIC50: −log10 of the molar value.

The subject of the assay is HEK-Blue TGFβ cell. The experiment in a line: HEK-Blue TGFβ cellular reporter gene assay (SEAP readout). The format is cell-based. As to conditions: HEK-Blue TGFβ cells stimulated with TGF-β, 22-23 h incubation, SEAP read at 630 nm. The protocol: HEK-Blue TGFβ Cellular Reporter Gene Assay:
HEK-Blue TGFβ cell was purchased from Invivogen. Cell suspension of 2.5×10^5 cells/ml was prepared using Test Medium (DMEM containing 0.5% v/v heat-inactivated FBS). TGF-β working solution (6 ng/ml) was obtained through diluting TGF-β stock solution (10 μg/ml) by Test Medium before use. Eight different concentrations of all compounds were obtained by 3× gradient dilution method using TGF-β working solution. Add 100 μl of Test Medium (Vehicle) or test article or TGF-β working solution per well of a flat-bottom 96-well plate. Add 100 μl of HEK-Blue TGF-β cell suspension per well. Incubate the plate at 37° C. in a CO2 incubator for 22-23 h. Add 150 μl of resuspended QUANTI-Blue per well of a new flat-bottom 96-well plate. Add 30 μl of induced HEK-Blue TGF-β cells supernatant. Avoid pipetting at the bottom of wells. Incubate the plate at 37° C. incubator for 30-40 min. Determine secreted embryonic alkaline phosphatase (SEAP) levels using a spectrophotometer at 630 nm.
The inhibition was calculated using the equation: […]
The compound `O=C(O)CCc1cccc(Nc2cc(Oc3cn(C4CC4)nc3C3CCOCC3)ccn2)c1` [Example 68, 3-(3-((4-((1-cyclopropyl-3-(tetrahydro-2H-pyran-4-yl)-1H-pyrazol-4-yl)oxy)pyridin-2-yl)amino)phenyl)propanoic acid] had a negative logarithm of the IC50 (pIC50) of 6.13.
`O=C(O)CCc1cc(Nc2cc(Oc3cn(C4CC4)nc3C3CCOCC3)ccn2)ccn1` [Example 69] gave a pIC50 below 5.00.
As to `Cc1cc(Oc2ccnc(Nc3cccc(C(C)(C)C(=O)O)c3)c2)c(-c2ccccn2)nc1C` [Example 71, 2-(3-((4-((5,6-dimethyl-[2,2′-bipyridin]-3-yl)oxy)pyridin-2-yl)amino)phenyl)-2-methylpropanoic acid], the pIC50 was 6.85.
Compound `Cc1ccc(Oc2ccnc(Nc3cccc(C(C)(C)C(=O)O)c3)c2)c(-c2ccccn2)n1` [Example 72, 2-methyl-2-(3-((4-((6-methyl-[2,2′-bipyridin]-3-yl)oxy)pyridin-2-yl)amino)phenyl)propanoic acid] gave a pIC50 of 6.74.
As to `Cc1ccc(Oc2ccnc(Nc3cccc(C(C)(C)C(=O)O)c3)c2)c(C)n1` [Example 73], the pIC50 is 6.85.
For the compound `Cc1nc(-c2ccccc2)ccc1Oc1ccnc(Nc2cccc(C(C)(C)C(=O)O)c2)c1` [Example 75], the negative logarithm of the IC50 (pIC50) was 5.09.
`Cc1cc(Oc2ccnc(Nc3cccc(OCC(=O)O)c3)c2)c(-c2ccccn2)nc1C` [Example 76] showed a pIC50 below 5.00.
As for `Cc1ccc(Oc2ccnc(Nc3cccc(C4(C(=O)O)CC4)c3)c2)c(-c2ccccc2)n1` [Example 77, 1-(3-((4-((6-methyl-2-phenylpyridin-3-yl)oxy)pyridin-2-yl)amino)phenyl)cyclopropane-1-carboxylic acid], the figure is 7.10.
`Cc1ccc(Oc2ccnc(Nc3cccc(C(C)(C)C(=O)O)c3)c2)c(-c2cccc(Cl)c2)n1` [Example 78]: the negative-log IC50 (pIC50) is 6.96.
As for `Cc1ccc(Oc2ccnc(Nc3cccc(C(C)(C)C(=O)O)c3)c2)c(-c2ccc(Cl)cc2)n1` [Example 79], the figure is 6.74; as for `Cc1ccc(Oc2ccnc(Nc3cccc(C(C)(C)C(=O)O)c3)c2)c(-c2ccccc2Cl)n1` [Example 80], 6.96; as for `CCc1nc(C)c(Oc2ccnc(Nc3cccc(C(C)(C)C(=O)O)c3)c2)cc1C` [Example 82], 7.74.
As for `CCc1nc(C)c(Oc2ccnc(Nc3cccc(C(C)(C)C(=O)O)c3)c2)cc1Cl` [Example 83], the figure is 7.46; as for `CCc1ccc(Oc2ccnc(Nc3cccc(C(C)(C)C(=O)O)c3)c2)c(-c2ccccn2)n1` [Example 84], 7.26; as for `CCc1nc(-c2ccccn2)c(Oc2ccnc(Nc3cccc(C(C)(C)C(=O)O)c3)c2)cc1C` [Example 85], 7.36.
As for `COc1ccccc1-c1nc(C)ccc1Oc1ccnc(Nc2cccc(C(C)(C)C(=O)O)c2)c1` [Example 86], the figure is 6.62; as for `COc1cccc(-c2nc(C)ccc2Oc2ccnc(Nc3cccc(C(C)(C)C(=O)O)c3)c2)c1` [Example 87], 7.03; as for `COc1ccc(-c2nc(C)ccc2Oc2ccnc(Nc3cccc(C(C)(C)C(=O)O)c3)c2)cc1` [Example 88], 7.41.
With `Cc1ccc(Oc2ccnc(Nc3cccc(C(C)(C)C(=O)O)c3)c2)c(-c2ccccc2F)n1` [Example 89], the pIC50 was 7.57.
The result for `Cc1ccc(Oc2ccnc(Nc3cccc(C(C)(C)C(=O)O)c3)c2)c(-c2cccc(F)c2)n1` [Example 90] reads 7.62.
Compound `Cc1ccc(Oc2ccnc(Nc3cccc(C(C)(C)C(=O)O)c3)c2)c(-c2ccc(F)cc2)n1` [Example 91] gave a pIC50 of 7.74.
Consider `Cc1ccc(Oc2ccnc(Nc3cccc(C(C)(C)C(=O)O)c3)c2)c(-c2ccccc2C)n1` [Example 92], for which the pIC50 was 7.10.
The result for `Cc1cccc(-c2nc(C)ccc2Oc2ccnc(Nc3cccc(C(C)(C)C(=O)O)c3)c2)c1` [Example 93] reads 6.92.
The result for `Cc1ccc(-c2nc(C)ccc2Oc2ccnc(Nc3cccc(C(C)(C)C(=O)O)c3)c2)cc1` [Example 94] reads 7.19.
`Cc1ccc(Oc2ccnc(Nc3cccc(C(C)(C)C(=O)O)c3)c2)c(-c2ccccc2C#N)n1` [Example 95] showed a pIC50 of 6.54.
As for `Cc1ccc(Oc2ccnc(Nc3cccc(C(C)(C)C(=O)O)c3)c2)c(-c2cccc(C#N)c2)n1` [Example 96], the figure is 6.72; as for `Cc1ccc(Oc2ccnc(Nc3cccc(C(C)(C)C(=O)O)c3)c2)c(-c2ccc(C#N)cc2)n1` [Example 97], 6.70; as for `Cc1cc(Oc2ccnc(Nc3cccc(C(C)(C)C(=O)O)c3)c2)c(-c2ccccc2)nc1C` [Example 98], 7.29.
`Cc1nc(-c2ccccc2)c(Oc2ccnc(Nc3cccc(C(C)(C)C(=O)O)c3)c2)cc1Cl` [Example 99]: the pIC50 was 7.64. Against the preceding compound, the pIC50 is 0.35 log units higher.
As for `CCc1cc(Oc2ccnc(Nc3cccc(C(C)(C)C(=O)O)c3)c2)c(-c2ccccc2)nc1C` [Example 100], the figure is 5.59; as for `Cc1nc(-c2ccccc2)c(Oc2ccnc(Nc3cccc(C(C)(C)C(=O)O)c3)c2)cc1C1CC1` [Example 101], 5.48.
The result for `Cc1nc(-c2ccccc2)c(Oc2ccnc(Nc3cccc(C(C)(C)C(=O)O)c3)c2)cc1C(C)C` [Example 102] reads 5.57; that for `Cc1nc(-c2ccccc2)c(Oc2ccnc(Nc3cccc(C(C)(C)C(=O)O)c3)c2)cc1C(C)(C)O` [Example 103], below 5.00.
As for `CC(C)(C(=O)O)c1cccc(Nc2cc(Oc3ccc(C4CC4)nc3-c3ccccc3)ccn2)c1` [Example 105], the figure is 6.89.
As to `CCCc1ccc(Oc2ccnc(Nc3cccc(C(C)(C)C(=O)O)c3)c2)c(-c2ccccc2)n1` [Example 106], the negative logarithm of the IC50 (pIC50) is 6.92. The pIC50 values of the last two compounds are within 0.2 log units of each other.
The result for `CC(C)c1ccc(Oc2ccnc(Nc3cccc(C(C)(C)C(=O)O)c3)c2)c(-c2ccccc2)n1` [Example 107] reads 6.74; that for `Cc1ccc(Oc2ccnc(Nc3cccc(C(C)(C)C(=O)O)c3)c2)c(C2CCOCC2)n1` [Example 108], 6.05.
In the case of `Cc1cc(Oc2ccnc(Nc3cccc(C(C)(C)CC(=O)O)c3)c2)c(-c2ccccn2)nc1C` [Example 109], the pIC50 is 7.29.
The result for `Cc1ccc(Oc2ccnc(Nc3cccc(C(C)(C)CC(=O)O)c3)c2)c(-c2ccccc2)n1` [Example 110] reads 7.52; that for `O=C(O)c1cccc(Nc2cc(Oc3cn(C4CC4)nc3C3CCOCC3)ccn2)c1` [Example 111], 5.21; that for `Cc1cc(Nc2cc(Oc3cn(C4CC4)nc3C3CCOCC3)ccn2)cc(C(=O)O)c1` [Example 112], 5.78.
Turning to `CC(C)(C(=O)O)c1ccc(Nc2cc(Oc3cn(C4CC4)nc3C3CCOCC3)ccn2)cc1` [Example 113], the pIC50 was 6.29.
The result for `Cc1ccc(Nc2cc(Oc3cn(C4CC4)nc3C3CCOCC3)ccn2)cc1C(=O)O` [Example 114] reads 5.60; that for `Cc1ccc(Nc2cc(Oc3cn(C4CC4)nc3C3CCOCC3)ccn2)cc1CC(=O)O` [Example 115], 5.96.
`O=C(O)c1cc(Nc2cc(Oc3cn(C4CC4)nc3C3CCOCC3)ccn2)ccn1` [Example 117]: the pIC50 was below 5.00.
As for `CC(C)(C(=O)O)c1cccc(Nc2cc(Oc3cn(C4CCC4)nc3C3CCOCC3)ccn2)c1` [Example 118], the figure is 6.51.
The compound `CC(C)(C(=O)O)c1cccc(Nc2cc(Oc3cn(C4CC4)nc3-c3ccccc3)ccn2)c1` [Example 119] showed a negative-log IC50 (pIC50) of 7.89.
As for `Cn1cc(Oc2ccnc(Nc3cccc(C(C)(C)C(=O)O)c3)c2)c(-c2ccccc2)n1` [Example 120], the figure is 7.30; as for `CC(C)(C(=O)O)c1cccc(Nc2cc(Oc3cn(C(F)F)nc3-c3ccccc3)ccn2)c1` [Example 121], 7.11.
As for `CCn1cc(Oc2ccnc(Nc3cccc(C(C)(C)C(=O)O)c3)c2)c(-c2ccccc2)n1` [Example 122], the figure is 7.54.
As for `CC(C)(C(=O)O)c1cccc(Nc2cc(Oc3cn(CC(F)F)nc3-c3ccccc3)ccn2)c1` [Example 123], the figure is 6.74.
In turn, `CC(C)n1cc(Oc2ccnc(Nc3cccc(C(C)(C)C(=O)O)c3)c2)c(-c2ccccc2)n1` [Example 124] gave a negative-log IC50 (pIC50) of 6.72. This pIC50 and that of the compound before are within 0.2 log units of each other.
Take `CC(C)(C(=O)O)c1cccc(Nc2cc(Oc3cn(C4CCC4)nc3-c3ccccc3)ccn2)c1` [Example 125]: the pIC50 is 7.18.
The result for `CC(C)(C(=O)O)c1cccc(Nc2cc(Oc3cn(C4COC4)nc3-c3ccccc3)ccn2)c1` [Example 126] reads 6.70; that for `CC(C)(C(=O)O)c1cccc(Nc2cc(Oc3cn(C4CC4)nc3C3CCCCC3)ccn2)c1` [Example 127], 7.92; that for `CC(C)(C(=O)O)c1cccc(Nc2cc(Oc3cn(C4CC4)nc3C3CCCC3)ccn2)c1` [Example 128], 7.66.
`CC(C)(C(=O)O)c1cccc(Nc2cc(Oc3cn(C4CC4)nc3C3CCC3)ccn2)c1` [Example 129]: the pIC50 is 7.54. This pIC50 and that of the compound before are within 0.2 log units of each other.
With `CC(C)(C(=O)O)c1cccc(Nc2cc(Oc3cn(C4CC4)nc3-c3ccccn3)ccn2)c1` [Example 130], the pIC50 is below 5.00.
Consider `Cc1ccc(Oc2ccnc(Nc3cccc(C(F)(F)C(=O)O)c3)c2)c(-c2ccccc2)n1` [Example 131, 2,2-difluoro-2-(3-((4-((6-methyl-2-phenylpyridin-3-yl)oxy)pyridin-2-yl)amino)phenyl)acetic acid], for which the pIC50 was 5.76.

The values above are taken from patent US20220054465A1, “(PYRIDIN-2-YL)AMINE DERIVATIVES AS TGF-BETA R1 (ALK5) INHIBITORS FOR THE TREATMENT OF CANCER” (Nexys Therapeutics, Inc., priority 2018, published 2022).
